Molecules are shown by their SMILES. Active and inactive are the calls of the source. The calls are words filed in the database; no cut-off is given here.

By Ki is commonly meant the dissociation constant of the complex between target and ligand, obtained from inhibition or displacement. One may read the inhibition as how much of the control response was suppressed. A word on the IC50: it is the concentration needed to halve the response being measured.

The target of test [1] is T1, Adenosine receptor A1 (Homo sapiens, UniProt P30542).
T1 sequence (P30542 whole entry): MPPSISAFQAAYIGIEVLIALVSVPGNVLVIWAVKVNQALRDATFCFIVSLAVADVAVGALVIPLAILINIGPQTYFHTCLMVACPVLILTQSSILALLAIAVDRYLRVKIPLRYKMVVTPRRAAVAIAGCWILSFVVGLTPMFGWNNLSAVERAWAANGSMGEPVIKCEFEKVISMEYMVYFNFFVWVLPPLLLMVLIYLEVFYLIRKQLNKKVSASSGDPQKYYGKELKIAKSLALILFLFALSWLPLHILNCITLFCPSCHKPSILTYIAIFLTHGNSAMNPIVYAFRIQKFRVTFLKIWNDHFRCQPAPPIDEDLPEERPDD
Briefly: Displacement of [3H]-DPCPX from human adenosine A1 receptor expressed in CHO cells by scintillation counting analysis. It counts as cell-based. In general terms: In a radioligand displacement assay an active substance lowers the binding of a labelled ligand.

For test [2], the target named is T2, Adenosine receptor A3 (Homo sapiens) (UniProt P0DMS8).
T2 sequence (whole entry): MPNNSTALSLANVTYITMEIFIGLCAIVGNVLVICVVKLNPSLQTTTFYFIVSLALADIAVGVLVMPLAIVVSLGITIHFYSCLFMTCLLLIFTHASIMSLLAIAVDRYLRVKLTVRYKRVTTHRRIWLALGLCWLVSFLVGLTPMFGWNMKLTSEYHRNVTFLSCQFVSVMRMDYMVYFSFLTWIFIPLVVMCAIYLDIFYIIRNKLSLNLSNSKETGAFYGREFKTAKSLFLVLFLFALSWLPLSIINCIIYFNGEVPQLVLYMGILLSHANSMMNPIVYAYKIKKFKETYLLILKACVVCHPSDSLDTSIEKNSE
Put plainly: Displacement of [3H]AB-MECA from human adenosine A3 receptor expressed in CHO cells at 1 uM by scintillation counting analysis relative to control. The test is classed as cell-based.

In test [3] the target is T3, Adenosine receptor A2a (Homo sapiens, UniProt P29274). Put plainly: Displacement of [3H]ZM241385 from human adenosine A2A receptor expressed in CHO cells by scintillation counting analysis. It counts as cell-based.
Test [4] deals with T1, Adenosine receptor A1. Briefly: Antagonist activity at human adenosine A1 receptor expressed in CHO cells assessed as inhibition of CCPA-stimulated cAMP level by scintillation counting analysis. The test is classed as functional, cell-based.
For test [5], the target named is T4, Adenosine receptor A2b (Homo sapiens, UniProt P29275).
T4 sequence (P29275 whole entry): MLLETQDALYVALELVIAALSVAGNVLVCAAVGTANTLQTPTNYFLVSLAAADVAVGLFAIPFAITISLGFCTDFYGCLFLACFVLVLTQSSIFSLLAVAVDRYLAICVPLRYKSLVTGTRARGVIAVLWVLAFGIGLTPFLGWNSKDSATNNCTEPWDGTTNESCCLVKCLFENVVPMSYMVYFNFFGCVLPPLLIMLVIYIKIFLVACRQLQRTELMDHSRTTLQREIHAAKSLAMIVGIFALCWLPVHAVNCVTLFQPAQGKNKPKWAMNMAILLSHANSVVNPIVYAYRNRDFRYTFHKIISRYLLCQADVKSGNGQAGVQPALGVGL
Briefly: Antagonist activity at human adenosine A2B receptor expressed in CHO cells assessed as inhibition of NECA-stimulated cAMP level by scintillation counting analysis. It counts as functional, cell-based.

Test [6] addresses T3, Adenosine receptor A2a. Briefly: Displacement of [3H]ZM241385 from human adenosine A2A receptor expressed in CHO cells at 1 uM by scintillation counting analysis relative to control. It counts as cell-based.
For test [7], the target named is T5, Adenosine receptor A1 (Homo sapiens) (UniProt P30542).
T5 sequence (whole entry): T1 sequence (P30542 whole entry)
Briefly: Displacement of [3H]-DPCPX from human adenosine A1 receptor expressed in CHO cells at 1 uM by scintillation counting analysis relative to control. The test is classed as cell-based.

The target of test [8] is T6, Adenosine receptor A2b (Homo sapiens) (UniProt P29275).
T6 sequence (whole entry): T4 sequence (P29275 whole entry)
Put plainly: Antagonist activity at human adenosine A2B receptor expressed in CHO cells assessed as inhibition of NECA-stimulated cAMP level at 1 uM by scintillation counting analysis. The test is classed as functional, cell-based. A general note: Cyclic AMP is a second messenger, typically raised through Gs and lowered through Gi signalling.

Test [9] deals with T7, Adenosine receptor A3 (Homo sapiens, UniProt P0DMS8).
T7 sequence (P0DMS8 whole entry): T2 sequence (whole entry)
Briefly: Displacement of [3H]AB-MECA from human adenosine A3 receptor expressed in CHO cells by scintillation counting analysis. The test is classed as cell-based.

Test [10] deals with T3, Adenosine receptor A2a. Put plainly: Antagonist activity at human adenosine A2A receptor expressed in CHO cells assessed as inhibition of NECA-stimulated cAMP level by scintillation counting analysis. The test is classed as functional, cell-based.
For test [11], the target named is T5, Adenosine receptor A1 (Homo sapiens). The settings on record: CHO, 100 nM.
Description: Antagonist activity at human adenosine A1 receptor expressed in CHO cells assessed as inhibition of CCPA-stimulated cAMP level at 100 nM by scintillation counting analysis

T3 sequence (P29274 whole entry): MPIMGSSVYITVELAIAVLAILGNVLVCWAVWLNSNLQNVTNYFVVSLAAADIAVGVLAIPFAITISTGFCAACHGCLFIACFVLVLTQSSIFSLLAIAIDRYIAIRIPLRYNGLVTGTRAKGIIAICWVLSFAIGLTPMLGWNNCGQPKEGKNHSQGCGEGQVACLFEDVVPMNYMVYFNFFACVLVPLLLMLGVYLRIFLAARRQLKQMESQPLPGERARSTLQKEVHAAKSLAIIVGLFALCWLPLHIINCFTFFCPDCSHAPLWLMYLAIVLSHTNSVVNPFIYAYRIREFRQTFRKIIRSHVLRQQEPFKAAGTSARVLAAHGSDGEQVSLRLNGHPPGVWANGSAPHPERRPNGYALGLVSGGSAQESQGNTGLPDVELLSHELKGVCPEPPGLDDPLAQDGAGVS

Turning to `COc1cccc(CCCc2nc(N)c3nn(-c4ccccc4)cc3n2)c1`, the values for the inhibition constant (Ki) in test [1] and in test [3] were 0.15 nM and 147 nM, respectively. In test [2], this compound had an inhibition of 33%. The IC50 in [4] was determined as 2.41 nM; in test [5], 334 nM.
For the compound `C=CCOc1ccc(CCCc2nc(N)c3nn(-c4ccccc4)cc3n2)cc1`, the inhibition came out at 15% in [6], 3% in test [2], 40% in [7] and 3% in test [8].
In the case of `CC(C)c1nc(N)c2nn(-c3ccccc3)cc2n1`, the inhibition in test [6] was 22%; in [2] it was 11%; in test [7] it was 2%; in test [8], 5%.
For `Nc1nc(CCc2ccccc2)nc2cn(-c3ccccc3)nc12`, in that order: 35%, 17%, 15% and 2%.
`COc1ccccc1Cc1nc(N)c2nn(-c3ccccc3)cc2n1`: the Ki came to 572 nM in [9], 375 nM in test [1] and 213 nM in test [3]. For the same compound, in test [8], the inhibition turned out to be 1%.
As to `Nc1nc(Cc2ccc(Cl)cc2)nc2cn(-c3ccccc3)nc12`, the inhibition in test [6] stood at 1%; in test [2], 11%; in test [7] it was 49%; in test [8], 1%.
`CCc1nc(N)c2nn(-c3ccccc3)cc2n1` yielded a Ki in test [1] of 90 nM. Further, the inhibition in test [6] turned out to be 38%; in [2], 38%; in test [8], 49%.
On to `Nc1nc(CCc2ccc(O)cc2)nc2cn(-c3ccccc3)nc12`, for which, in test [1], the inhibition constant (Ki) amounted to 420 nM. For the same compound, the results for the inhibition in [6], in test [2] and in test [8] were 30%, 37% and 7%, respectively.
Consider `Nc1nc(Cc2cccc(Cl)c2)nc2cn(-c3ccccc3)nc12`, for which the inhibition in test [6] turned out to be 6%; in test [2], 42%; in [7], 32%; in test [8], 1%.
Take `Cc1cccc(Cc2nc(N)c3nn(-c4ccccc4)cc3n2)c1`: the inhibition in [6] stood at 31%; in test [2] it was 11%; in test [7], 41%; in test [8] it was 21%.
As for `Nc1nc(Cc2cccc(O)c2)nc2cn(-c3ccccc3)nc12`, the Ki in [9] stood at 435 nM; in test [1], 312 nM; in test [3] it was 521 nM. Also, the inhibition in test [8] was 1%.
Consider `Nc1ncnc2cn(-c3ccccc3)nc12`, for which the Ki in test [1] worked out at 80 nM; in test [3], 410 nM. The compound further returned an inhibition in test [2] of 4%. Moreover, the IC50 in test [5] came out at 630 nM.
Turning to `COc1ccc(Cc2nc(N)c3nn(-c4ccccc4)cc3n2)cc1`, the inhibition in test [6] was determined as 20%; in [2], 38%; in [7], 48%; in [8] it was 5%.
`Nc1nc(/C=C/c2ccccc2)nc2cn(-c3ccccc3)nc12` gave a Ki in [1] of 480 nM. The inhibition turned out to be 21% in test [6], 25% in [2] and 7% in [8].
Consider `Nc1nc(CCCc2ccc(O)cc2)nc2cn(-c3ccccc3)nc12`, for which the Ki is 18 nM in [1] and 722 nM in test [3]. Besides, the inhibition in test [2] came out at 20%; in [8], 5%.
For `COc1ccc(CCCc2nc(N)c3nn(-c4ccccc4)cc3n2)cc1`, in that order: 16 nM, 790 nM, 1% and 30%.
Turning to `Cc1ccc(Cc2nc(N)c3nn(-c4ccccc4)cc3n2)cc1`, the inhibition is 26% in [6], 39% in test [2], 38% in [7] and 21% in [8].
For the compound `Nc1nc(Cc2ccccc2O)nc2cn(-c3ccccc3)nc12`, the Ki was determined as 97 nM in test [9], 64 nM in [1] and 89 nM in test [3]. In [8], the inhibition was found to be 1%.
As to `Nc1nc(CCCc2cccc(O)c2)nc2cn(-c3ccccc3)nc12`, the results for the inhibition constant (Ki) in [1] and in test [3] were 0.22 nM and 146 nM, respectively. The compound further returned an inhibition in [2] of 46%. Moreover, the IC50 in [4] was found to be 2.87 nM; in test [5] it was 314 nM.
For `Nc1nc(CCCc2ccccc2O)nc2cn(-c3ccccc3)nc12`, in that order: 0.54 nM, 102 nM, 36%, 4.26 nM and 247 nM.
For `CC(C)Cc1nc(N)c2nn(-c3ccccc3)cc2n1`, the inhibition in test [6] was 50%; in test [2], 13%; in test [7] it was 49%; in test [8], 1%.
`COc1cccc(Cc2nc(N)c3nn(-c4ccccc4)cc3n2)c1`: the Ki in [1] came out at 90 nM. For the same compound, the inhibition in [6] is 14%; in test [2], 37%; in [8], 1%.
As to `COc1ccccc1CCCc1nc(N)c2nn(-c3ccccc3)cc2n1`, the Ki in test [1] was 1.31 nM; in [3], 153 nM. This compound registered an inhibition in [2] of 47%. Also, the values for the IC50 in [4] and in [5] were 12 nM and 387 nM, respectively.
As to `Nc1nc(Cc2ccccc2F)nc2cn(-c3ccccc3)nc12`, the figures for the Ki in [1] and in test [3] were 35 nM and 154 nM, respectively. Moreover, the inhibition in test [2] worked out at 37%. Moreover, the concentration for half-maximal inhibition (IC50) in test [5] is 123 nM.
Consider `Nc1nc(CCCc2ccccc2)nc2cn(-c3ccccc3)nc12`, for which the Ki stood at 5.31 nM in test [1] and 55 nM in test [3]. Also, the inhibition in test [2] came to 12%; in test [8], 42%. The IC50 in test [4] amounted to 43 nM; in test [5], 432 nM; in test [10] it was 423 nM.
As for `COc1ccc(CCc2nc(N)c3nn(-c4ccccc4)cc3n2)cc1`, in [1], affinity was put at a Ki of 380 nM. Also, the inhibition in test [6] was 13%; in [2], 22%; in test [8], 9%.
In the same order, the values of `Nc1nc(Cc2ccccc2Cl)nc2cn(-c3ccccc3)nc12` are 155 nM, 44%, 22% and 3%.
As for `Nc1nc(CCCc2ccc(OCc3ccccc3)cc2)nc2cn(-c3ccccc3)nc12`, the inhibition worked out at 3% in test [6], 2% in [2], 14% in test [7] and 8% in [8].
For `Nc1nc(Cc2cccc(C(F)(F)F)c2)nc2cn(-c3ccccc3)nc12`, in that order: 21%, 41%, 1% and 1%.
For `Nc1nc(Cc2ccc(O)cc2)nc2cn(-c3ccccc3)nc12`, in that order: 44%, 20%, 39% and 4%.
In [1], `Nc1nc(Cc2ccc3c(c2)OCO3)nc2cn(-c3ccccc3)nc12` came in with a Ki of 75 nM. For the same compound, the figures for the inhibition in test [6], in test [2] and in test [8] were 2%, 14% and 1%, respectively.
Regarding `OC[C@H]1O[C@@H](n2cnc3c(NC4CCCC4)nc(Cl)nc32)[C@H](O)[C@@H]1O`, the inhibition entry in [11] was “Active”.
